Results published in US11787825B2 (priority 2021, dated 2023).

Details: 1.0% DMSO, 24-hour incubation at ambient temperature, maximum theoretical compound concentration 100 μM; for pH 2 solubility: 0.1N HCL; for pH 7 solubility: 1×PBS buffer (pH 7.4)

Row | pH 2 solubility | pH 7 solubility | SMILES
1 | 1/1 μM | 1/1 μM | COC(=O)N[C@@H](C)C(=O)N(c1nn(CC(F)(F)F)c2c(-c3ccc(C#CC(C)(C)S(C)(=O)=O)nc3[C@H](Cc3cc(F)cc(F)c3)NC(=O)Cn3nc(C(F)(F)F)c4c3C(F)(F)[C@@H]3C[C@H]43)ccc(Cl)c12)S(C)(=O)=O [Compound 7, methyl ((5)-1-(N-(4-chloro-7-(2-((S)-1-(2-((3bS,4aR)-5,5-difluoro-3-(trifluoromethyl)-3b,4,4a,5-tetrahydro-1H-cyclopropa[3,4]cyclopenta[1,2-c]pyrazol-1-yl)acetamido)-2-(3,5-difluorophenyl)ethyl)-6-(3-methyl-3-(methylsulfonyl)but-1-yn-1-yl)pyridin-3-yl)-1-(2,2,2-trifluoroethyl)-1H-indazol-3-yl)methylsulfonamido)-1-oxopropan-2-yl)carbamate]
2 | 65 μM | 8 μM | CC(C)(C#Cc1ccc(-c2ccc(Cl)c3c(N(C(=O)CN)S(C)(=O)=O)nn(CC(F)(F)F)c23)c([C@H](Cc2cc(F)cc(F)c2)NC(=O)Cn2nc(C(F)(F)F)c3c2C(F)(F)[C@@H]2C[C@H]32)n1)S(C)(=O)=O [Compound 12, 2-amino-N-(4-chloro-7-(2-((S)-1-(2-((3bS,4aR)-5,5-difluoro (trifluoromethyl)-3b,4,4a,5-tetrahydro-1H-cyclopropa[3,4]cyclopenta[1,2-c]pyrazolyl)acetamido)-2-(3,5-difluorophenyl)ethyl)-6-(3-methyl-3-(methylsulfonyl)but-1-ynyl)pyridin-3-yl)-1-(2,2,2-trifluoroethyl)-1H-indazol-3-yl)-N-(methylsulfonyl)acetamide]
3 | 1 μM | 90 μM | CC(C)(C#Cc1ccc(-c2ccc(Cl)c3c(N(C(=O)CNC(=O)C(=O)O)S(C)(=O)=O)nn(CC(F)(F)F)c23)c([C@H](Cc2cc(F)cc(F)c2)NC(=O)Cn2nc(C(F)(F)F)c3c2C(F)(F)[C@@H]2C[C@H]32)n1)S(C)(=O)=O [Compound 13, 2-((2-(N-(4-chloro-7-(2-((S)-1-(2-((3bS,4aR)-5,5-difluoro-3-(trifluoromethyl)-3b,4,4a,5-tetrahydro-1H-cyclopropa[3,4]cyclopenta[1,2-c]pyrazol-1-yl)acetamido)-2-(3,5-difluorophenyl)ethyl)-6-(3-methyl-3-(methylsulfonyl)but-1-yn-1-yl)pyridin-3-yl)-1-(2,2,2-trifluoroethyl)-1H-indazol-3-yl)methylsulfonamido)-2-oxoethyl)amino)-2-oxoacetic acid]
4 | 1/1 μM | 1/1 μM | CC(C)(CC(=O)O)C(=O)N(c1nn(CC(F)(F)F)c2c(-c3ccc(C#CC(C)(C)S(C)(=O)=O)nc3[C@H](Cc3cc(F)cc(F)c3)NC(=O)Cn3nc(C(F)(F)F)c4c3C(F)(F)[C@@H]3C[C@H]43)ccc(Cl)c12)S(C)(=O)=O [Compound 15, 4-(N-(4-chloro-7-(2-((S)-1-(2-((3bS,4aR)-5,5-difluoro-3-(trifluoromethyl)-3b,4,4a,5-tetrahydro-1H-cyclopropa[3,4]cyclopenta[1,2-c]pyrazol-1-yl)acetamido)-2-(3,5-difluorophenyl)ethyl)-6-(3-methyl-3-(methylsulfonyl)but-1-yn-1-yl)pyridin-3-yl)-1-(2,2,2-trifluoroethyl)-1H-indazol-3-yl)methylsulfonamido)-3,3-dimethyl-4-oxobutanoic acid]
5 | 92 μM | 20 μM | CN(C)CCCC[C@H](N)C(=O)N(c1nn(CC(F)(F)F)c2c(-c3ccc(C#CC(C)(C)S(C)(=O)=O)nc3[C@H](Cc3cc(F)cc(F)c3)NC(=O)Cn3nc(C(F)(F)F)c4c3C(F)(F)[C@@H]3C[C@H]43)ccc(Cl)c12)S(C)(=O)=O [Compound 16, ((S)-2-amino-N-(4-chloro-7-(2-((S)-1-(2-((3bS,4aR)-5,5-difluoro-3-(trifluoromethyl)-3b,4,4a,5-tetrahydro-1H-cyclopropa[3,4]cyclopenta[1,2-c]pyrazolyl)acetamido)-2-(3,5-difluorophenyl)ethyl)-6-(3-methyl-3-(methylsulfonyl)but-1-ynyl)pyridin-3-yl)-1-(2,2,2-trifluoroethyl)-1H-indazol-3-yl)-6-(dimethylamino)-N-(methylsulfonyl)hexanamide)]

Further lines, the molecule ahead of its results:

Row | SMILES | pH 2 solubility | pH 7 solubility
6 | CC(C)(C#Cc1ccc(-c2ccc(Cl)c3c(N(C(=O)C[N+](C)(C)C)S(C)(=O)=O)nn(CC(F)(F)F)c23)c([C@H](Cc2cc(F)cc(F)c2)NC(=O)Cn2nc(C(F)(F)F)c3c2C(F)(F)[C@@H]2C[C@H]32)n1)S(C)(=O)=O [Compound 5, 2-(N-(4-chloro-7-(2-((S)-1-(2-((3bS,4aR)-5,5-difluoro (trifluoromethyl)-3b,4,4a,5-tetrahydro-1H-cyclopropa[3,4]cyclopenta[1,2-c]pyrazolyl)acetamido)-2-(3,5-difluorophenyl)ethyl)-6-(3-methyl-3-(methylsulfonyl)but-1-ynyl)pyridin-3-yl)-1-(2,2,2-trifluoroethyl)-1H-indazol-3-yl)methylsulfonamido)-N,N,N-trimethyl-2-oxoethan-1-aminium] | 45 μM | 6 μM
7 | CC(C)[C@@H](C(=O)N(c1nn(CC(F)(F)F)c2c(-c3ccc(C#CC(C)(C)S(C)(=O)=O)nc3[C@H](Cc3cc(F)cc(F)c3)NC(=O)Cn3nc(C(F)(F)F)c4c3C(F)(F)[C@@H]3C[C@H]43)ccc(Cl)c12)S(C)(=O)=O)N(C)C [Compound 8, N-(4-chloro-7-(2-((S)-1-(2-((3bS,4aR)-5,5-difluoro-3-(trifluoromethyl)-3b,4,4a,5-tetrahydro-1H-cyclopropa[3,4]cyclopenta[1,2-c]pyrazol-1-yl)acetamido)-2-(3,5-difluorophenyl)ethyl)-6-(3-methyl-3-(methylsulfonyl)but-1-yn-1-yl)pyridin-3-yl)-1-(2,2,2-trifluoroethyl)-1H-indazol-3-yl)-2-(dimethylamino)-3-methyl-N-(methylsulfonyl)butanamide] | 51 μM | 1 μM
8 | COCCOCCOCCOCCOCC(=O)N(c1nn(CC(F)(F)F)c2c(-c3ccc(C#CC(C)(C)S(C)(=O)=O)nc3[C@H](Cc3cc(F)cc(F)c3)NC(=O)Cn3nc(C(F)(F)F)c4c3C(F)(F)[C@@H]3C[C@H]43)ccc(Cl)c12)S(C)(=O)=O [Compound 9, N-(4-chloro-7-(2-((S)-1-(2-((3bS,4aR)-5,5-difluoro-3-(trifluoromethyl)-3b,4,4a,5-tetrahydro-1H-cyclopropa[3,4]cyclopenta[1,2-c]pyrazol-1-yl)acetamido)-2-(3,5-difluorophenyl)ethyl)-6-(3-methyl-3-(methylsulfonyl)but-1-ynyl)pyridin-3-yl)-1-(2,2,2-trifluoroethyl)-1H-indazol-3-yl)-N-(methylsulfonyl)-2,5,8,11,14-pentaoxahexadecan-16-amide] | 1/1 μM | 1/1 μM
9 | COC(=O)CCC(=O)N(c1nn(CC(F)(F)F)c2c(-c3ccc(C#CC(C)(C)S(C)(=O)=O)nc3[C@H](Cc3cc(F)cc(F)c3)NC(=O)Cn3nc(C(F)(F)F)c4c3C(F)(F)[C@@H]3C[C@H]43)ccc(Cl)c12)S(C)(=O)=O [Compound 10, methyl 4-(N-(4-chloro-7-(2-((S)-1-(2-((3bS,4aR)-5,5-difluoro-3-(trifluoromethyl)-3b,4,4a,5-tetrahydro-1H-cyclopropa[3,4]cyclopenta[1,2-c]pyrazol-1-yl)acetamido)-2-(3,5-difluorophenyl)ethyl)-6-(3-methyl-3-(methylsulfonyl)but-1-yn-1-yl)pyridin-3-yl)-1-(2,2,2-trifluoroethyl)-1H-indazol-3-yl)methylsulfonamido)-4-oxobutanoate] | 1/1 μM | 1/1 μM
10 | CC(C)(C#Cc1ccc(-c2ccc(Cl)c3c(N(C(=O)[C@@H](N)CCCCN)S(C)(=O)=O)nn(CC(F)(F)F)c23)c([C@H](Cc2cc(F)cc(F)c2)NC(=O)Cn2nc(C(F)(F)F)c3c2C(F)(F)[C@@H]2C[C@H]32)n1)S(C)(=O)=O [Compound 11, (S)-2,6-diamino-N-(4-chloro-7-(2-((S)-1-(2-((3bS,4aR)-5,5-difluoro-3-(trifluoromethyl)-3b,4,4a,5-tetrahydro-1H-cyclopropa[3,4]cyclopenta[1,2-c]pyrazol-1-yl)acetamido)-2-(3,5-difluorophenyl)ethyl)-6-(3-methyl-3-(methylsulfonyl)but-1-yn-1-yl)pyridin-3-yl)-1-(2,2,2-trifluoroethyl)-1H-indazol-3-yl)-N-(methylsulfonyl)hexanamide] | 100 μM | 43 μM
11 | CC(C)[C@H](N)C(=O)OCCCCC(=O)N(c1nn(CC(F)(F)F)c2c(-c3ccc(C#CC(C)(C)S(C)(=O)=O)nc3[C@H](Cc3cc(F)cc(F)c3)NC(=O)Cn3nc(C(F)(F)F)c4c3C(F)(F)[C@@H]3C[C@H]43)ccc(Cl)c12)S(C)(=O)=O [Compound 14] | 7 μM | 1 μM
12 | CNCC(=O)N(c1nn(CC(F)(F)F)c2c(-c3ccc(C#CC(C)(C)S(C)(=O)=O)nc3[C@H](Cc3cc(F)cc(F)c3)NC(=O)Cn3nc(C(F)(F)F)c4c3C(F)(F)[C@@H]3C[C@H]43)ccc(Cl)c12)S(C)(=O)=O [Compound 19, (N-(4-chloro-7-(2-((S)-1-(2-((3bS,4aR)-5,5-difluoro (trifluoromethyl)-3b,4,4a,5-tetrahydro-1H-cyclopropa[3,4]cyclopenta[1,2-c]pyrazolyl)acetamido)-2-(3,5-difluorophenyl)ethyl)-6-(3-methyl-3-(methylsulfonyl)but-1-ynyl)pyridin-3-yl)-1-(2,2,2-trifluoroethyl)-1H-indazol-3-yl)-2-(methylamino)-N-(methylsulfonyl)acetamide)] | 37 μM | 6 μM
